The results in this text go back to PubChem BioAssay AID328 (DTP/NCI, 2004).

Where “and” joins values, the source holds several entries; their conditions need not be identical. Identical values can stand only once. Toxic doses and inconclusive results are not listed.

The subject of this assay is BDF1 mice, P388 leukemia ip, median survival T/C. Description: NCI In Vivo Anticancer Drug Screen. Data for tumor model P388 Leukemia (intraperitoneal) in B6D2F1 (BDF1) mice. The following applies: endpoint: median survival time, higher = longer survival. In short, it runs like this:
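Compound-treated tumour-bearing mice were compared with vehicle-treated controls. Survival was recorded, and the value is the treated-group measurement divided by the control-group measurement (T/C).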

The mark [1] stands for this setting: dose: 50.0 mg/kg/injection, schedule: Q01DX009 (ip), vehicle: saline with Tween-80.
[2] abbreviates: dose: 100.0 mg/kg/injection, schedule: Q01DX009 (ip), vehicle: saline with Tween-80.
Setting [3] is: dose: 200.0 mg/kg/injection, schedule: Q01DX009 (ip), vehicle: saline with Tween-80.
Where [4] appears, read: dose: 50.0 mg/kg/injection, schedule: Q01DX009 (ip), vehicle: Klucel (hydroxypropylcellulose) (HPC).

Turning to `CCc1ccc(NC(=O)N(CCCl)N=O)cc1`, the T/C is 109 % of control (dose: 0.62 mg/kg/injection, schedule: Q04DX003 (ip), vehicle: Klucel (hydroxypropylcellulose) (HPC)); 158 % of control (dose: 0.8 mg/kg/injection, schedule: Q01DX009 (ip), vehicle: gum acacia); 154 % of control (dose: 1.3 mg/kg/injection, schedule: Q01DX009 (ip), vehicle: gum acacia); 153 % of control and 187 % of control (dose: 2.0 mg/kg/injection, schedule: Q01DX009 (ip), vehicle: gum acacia); 176 % of control (dose: 3.0 mg/kg/injection, schedule: Q01DX009 (ip), vehicle: gum acacia); 196 % of control (dose: 4.5 mg/kg/injection, schedule: Q01DX009 (ip), vehicle: gum acacia). In addition, the T/C is 177 % of control and 204 % of control (dose: 5.0 mg/kg/injection, schedule: Q04DX003 (ip), vehicle: Klucel (hydroxypropylcellulose) (HPC)); 230 % of control and 236 % of control (dose: 7.0 mg/kg/injection, schedule: Q01DX009 (ip), vehicle: gum acacia); 214 % of control (dose: 8.0 mg/kg/injection, schedule: Q04DX003 (ip), vehicle: Klucel (hydroxypropylcellulose) (HPC)); 250 % of control (dose: 11.0 mg/kg/injection, schedule: Q01DX009 (ip), vehicle: gum acacia); 238 % of control (dose: 12.0 mg/kg/injection, schedule: Q04DX003 (ip), vehicle: Klucel (hydroxypropylcellulose) (HPC)); 196 % of control (dose: 17.0 mg/kg/injection, schedule: Q01DX009 (ip), vehicle: gum acacia). Further, the T/C runs as follows: (dose: 18.0 mg/kg/injection, schedule: Q04DX003 (ip), vehicle: Klucel (hydroxypropylcellulose) (HPC)) 233 % of control and 285 % of control; (dose: 25.0 mg/kg/injection, schedule: Q01DX009 (ip), vehicle: gum acacia) 212 % of control; (dose: 25.0 mg/kg/injection, schedule: Q04DX003 (ip), vehicle: Klucel (hydroxypropylcellulose) (HPC)) 300 % of control; (dose: 37.0 mg/kg/injection, schedule: Q04DX003 (ip), vehicle: Klucel (hydroxypropylcellulose) (HPC)) 300 % of control.
Consider `O=C(/C=C/c1ccc(OCc2ccccc2)cc1)c1ccccc1Br`, for which the T/C runs as follows: under setting [1], 96 % of control; under setting [2], 107 % of control; under setting [3], 105 % of control.
As for `CN(C)NC1OC(C(O)S(=O)(=O)O)C(OCc2ccccc2)C(OCc2ccccc2)C1O` (configuration not stated), the T/C reads like this: under setting [1], 109 % of control; under setting [2], 98 % of control; under setting [3], 94 % of control.
For `O=C(O)CN(Cc1ccccc1)Sc1ccccc1[N+](=O)[O-]`, the T/C was 105 % of control (dose: 25.0 mg/kg/injection, schedule: Q04DX003 (ip), vehicle: other); 117 % of control (dose: 50.0 mg/kg/injection, schedule: Q04DX003 (ip), vehicle: other); 117 % of control (dose: 200.0 mg/kg/injection, schedule: Q04DX003 (ip), vehicle: other).
On to `ClC(c1ccccc1)C1(Br)C=c2ccccc2=C1` (configuration not stated), for which the T/C by setting is: under setting [4], 95 % of control; (dose: 50.0 mg/kg/injection, schedule: Q04DX003 (ip), vehicle: Klucel (hydroxypropylcellulose) (HPC)) 95 % of control; (dose: 100.0 mg/kg/injection, schedule: Q01DX009 (ip), vehicle: Klucel (hydroxypropylcellulose) (HPC)) 90 % of control; (dose: 100.0 mg/kg/injection, schedule: Q04DX003 (ip), vehicle: Klucel (hydroxypropylcellulose) (HPC)) 91 % of control; (dose: 200.0 mg/kg/injection, schedule: Q04DX003 (ip), vehicle: Klucel (hydroxypropylcellulose) (HPC)) 100 % of control.
Take `Nc1ncc([N+](=O)[O-])c(Cl)n1`: the T/C is, setting by setting: under setting [1], 103 % of control; under setting [2], 111 % of control.
For the molecule `Clc1ccc(-c2cc[s+]s2)cc1`, the T/C reads like this: (dose: 3.12 mg/kg/injection, schedule: Q01DX009 (ip), vehicle: water) 94 % of control; (dose: 3.12 mg/kg/injection, schedule: Q04DX003 (ip), vehicle: water) 111 % of control; (dose: 6.25 mg/kg/injection, schedule: Q01DX009 (ip), vehicle: water) 110 % of control; (dose: 6.25 mg/kg/injection, schedule: Q04DX003 (ip), vehicle: water) 100 % of control; (dose: 12.5 mg/kg/injection, schedule: Q01DX009 (ip), vehicle: water) 119 % of control; (dose: 12.5 mg/kg/injection, schedule: Q04DX003 (ip), vehicle: water) 97 % of control. Moreover, the T/C by setting is: (dose: 25.0 mg/kg/injection, schedule: Q01DX009 (ip), vehicle: water) 119 % of control; (dose: 25.0 mg/kg/injection, schedule: Q04DX003 (ip), vehicle: water) 96 % of control and 117 % of control; (dose: 50.0 mg/kg/injection, schedule: Q01DX009 (ip), vehicle: water) 108 % of control; (dose: 50.0 mg/kg/injection, schedule: Q04DX003 (ip), vehicle: water) 90 % of control and 100 % of control; (dose: 100.0 mg/kg/injection, schedule: Q04DX003 (ip), vehicle: water) 98 % of control.
As to `O=C(CBr)NCC1OC(n2cnc3c(=O)[nH]cnc32)C(O)C1O` (configuration not stated), the T/C (dose: 50.0 mg/kg/injection, schedule: Q01DX001 (ip), vehicle: Klucel (hydroxypropylcellulose) (HPC)) is 109 % of control; the T/C (dose: 100.0 mg/kg/injection, schedule: Q01DX001 (ip), vehicle: Klucel (hydroxypropylcellulose) (HPC)) was 101 % of control; the T/C (dose: 200.0 mg/kg/injection, schedule: Q01DX001 (ip), vehicle: Klucel (hydroxypropylcellulose) (HPC)) is 106 % of control.
In the case of `O=C1C(c2ccccc2)=S=C2C=CC=CN12`, the T/C reads like this: (dose: 12.5 mg/kg/injection, schedule: Q01DX001 (ip), vehicle: saline with Tween-80) 109 % of control; (dose: 25.0 mg/kg/injection, schedule: Q01DX001 (ip), vehicle: saline with Tween-80) 100 % of control; (dose: 50.0 mg/kg/injection, schedule: Q01DX001 (ip), vehicle: saline with Tween-80) 87 % of control; (dose: 100.0 mg/kg/injection, schedule: Q01DX001 (ip), vehicle: saline with Tween-80) 100 % of control.
Regarding `Cc1ccc(C(=O)CCCCCCCCC(=O)c2ccc(C)cc2)cc1`, the T/C runs as follows: (dose: 100.0 mg/kg/injection, schedule: Q04DX003 (ip), vehicle: saline with Tween-80) 100 % of control; (dose: 200.0 mg/kg/injection, schedule: Q04DX003 (ip), vehicle: saline with Tween-80) 90 % of control; (dose: 400.0 mg/kg/injection, schedule: Q04DX003 (ip), vehicle: saline with Tween-80) 100 % of control.
On to `O=C(C=C(C(F)(F)F)C(F)(F)F)c1ccc(Br)cc1`, for which the T/C runs as follows: (dose: 5.56 mg/kg/injection, schedule: Q01DX009 (ip), vehicle: other) 113 % of control; (dose: 8.33 mg/kg/injection, schedule: Q01DX009 (ip), vehicle: other) 113 % of control; (dose: 12.5 mg/kg/injection, schedule: Q01DX009 (ip), vehicle: other) 109 % of control; (dose: 18.7 mg/kg/injection, schedule: Q01DX009 (ip), vehicle: other) 109 % of control.
As to `N#CC(Nc1ccccc1)C1CC1c1ccccc1` (configuration not stated), the T/C was 90 % of control (dose: 12.5 mg/kg/injection, schedule: Q01DX009 (ip), vehicle: Klucel (hydroxypropylcellulose) (HPC)); 90 % of control (dose: 25.0 mg/kg/injection, schedule: Q01DX009 (ip), vehicle: Klucel (hydroxypropylcellulose) (HPC)); 90 % of control under setting [4].
Take `NC(N)=Nc1cccc(C(F)(F)F)c1`: the T/C under setting [1] is 94 % of control, the T/C under setting [2] is 100 % of control and the T/C under setting [3] is 109 % of control.
Turning to `CCOC(=O)c1ccc(NCC#N)cc1`, the T/C reads like this: under setting [2], 90 % of control; under setting [3], 100 % of control; (dose: 400.0 mg/kg/injection, schedule: Q01DX009 (ip), vehicle: saline with Tween-80) 100 % of control.
For `O=C(N[C@H](CO)[C@H](O)c1ccc([N+](=O)[O-])cc1)C(Cl)Cl`, the T/C under setting [2] is 118 % of control.
